In patent US6069172A, “(R)-2-(3-benzoylphenyl) propionic acid salts and pharmaceutical preparations containing them” (priority 1998, dated 2000):
Structures can show the parent of a compound that is named as a salt. Where two headings read alike, the source gives them in different places.

Tests used:
[1] = system: carrageenin-induced pleural exudate; PMN cell migration; conditions: oral, cited from earlier work; for migration of cells into the pleural cavity: PMN cells vs monocytes, thought in 1975
pain perception = conditions: men; compared with (S) enantiomers; cited from earlier work
[2] = men, cited from earlier work
[3] = rats; in words; cited from earlier work
[4] = guinea-pigs; cited from earlier work
PMN neutrophils = conditions: FLMP-stimulated vs other agonist-stimulated; cited from earlier work
neutrophil = conditions: Ca^++ ionophore and FLMP; cited from earlier work
human synovial cells = conditions: stimulated by interleukin-1 and TNF-a; cited from earlier work
[5] = system: ultra-violet radiation-induced epidermal erythema; conditions: topic; guinea pigs; cited from earlier work
TXB2 synthesis = TXB2 synthesis inhibition in human blood; format: cell-based; conditions: index of platelet antiaggregating properties
[6] = gastric ulcer-inducing properties in rats (ulcer score); format: in vivo; conditions: rat; for ulcer score: 40 mmoles/kg
Text: Guinea-pigs are a species naturally resistant to the gastrolesive action of NSAIDs, so that it is not possible to compare the two enantiomers in respect to this parameter in this species, unless using very high doses, having no predictive value. To this purpose, rats are necessarily, again, the chosen species, although the least suitable. […] The differences among the enantiomers and the racemate were statistically significant starting from the dose of […]: at this dose an "ulcer score" of 2 was evaluated for the (R) enantiomer, compared with "ulcer scores" of 3 and 4 for the racemate and the (S) enantiomer, respectively.

human PMN neutrophils [7] = experiment: IL-8-stimulated human PMN neutrophil degranulation (elastase release), FIG. 1; format: cell-based; conditions: IL-8 50 ng/ml, cytoclasin B 10^-5 M, 30 min 37° C; FIG. 1, ** p<0.05 against IL-8
Protocol: Human PMN neutrophils (10^7 /ml) were stimulated in the presence of cytoclasin B (10^-5 M) by adding IL-8 (50 ng/ml) and incubating them for 30 min at 37° C. La^+++ was added 5 min before IL-8 and the lysine salts of (R)- and (S)-ketoprofen 15 min before IL-8. Degranulation was evaluated based on the amount of elastase released in the cell-free surnatant and is expressed as DOD×10^3 /min.

oedema formation [8] = conditions: for inhibition of oedema formation: 25 to 750 mmoles/kg
[9] = system: Ca^++ channels, human PMN neutrophils; experiment: competition study with lanthanum ions: [Ca^++ ]i increase induced by IL-8, role of Ca^++ channels; format: cell-based; conditions: ketoprofen L-lysine salt 10^-8 M; La^+++ 10 μM; IL-8 50 ng/ml; % of basal (100%)
Protocol: Results reported in Table 2 are the cumulative values from 3 trials (3 donors, 3-7 cells per specimen). […] Responses are expressed as percent of basal [Ca^++ ]i value and are the mean from the values of all responsive cells. Standard error of the mean (SEM) and number of replications (in brackets) are also reported. […] The concentration of ketoprofen L-lysine salt was 10^-8 M, that of La^+++ 10 μM, and that of IL-8 50 ng/ml.

Neutrophils = conditions: 10^-6 M, 10 min 37° C; FIG. 2, ** p<0.01
Text: Results are expressed as the mean ±SD from 3 separated trials (** p<0.01 against each group).

human PMN leukocytes = experiment: [Ca^++ ]i increase induced by IL-8 in human PMN leukocytes; format: cell-based; conditions: IL-8 50 ng/ml, % of basal [Ca^++ ]i (basal 100%), no drug 302 ± 11
Protocol: The results reported in Table 1 are cumulative data obtained from 8 trials (8 donors who gave their explicit consent, 3 to 7 cells per specimen). […] The responses, expressed as percent of basal value of [Ca^++ ]i, are the mean from all responsive cells; standard error of the mean (±SEM) and number of replications (in brackets) are also reported. […] IL-8 concentration was 50 ng/ml.

[10] = system: mouse peritoneal macrophages; experiment: lipopolysaccharide-stimulated TNF-a release from mouse peritoneal macrophages; format: cell-based; conditions: LPS-stimulated; 10^-9 -10^-5 M
hyperalgesia = experiment: animal or person; conditions: for inhibitory effect on hyperalgesia: 25 to 750 mmoles/kg
Text: In order to predict the therapeutic effect of the racemates in men, it is necessary to know how much the single enantiomers contribute to the global activity, using experimental models excluding metabolic bio-conversion. […] This model allows the contemporary evaluation of the inhibition of oedema formation and of hyperalgesia.

[11] = system: mouse peritoneal macrophages; experiment: lipopolysaccharide-stimulated IL-1b release from mouse peritoneal macrophages; format: cell-based; conditions: for minimal effective concentration: Mus musculus, Peritoneal macrophage, read-out: concentration of statistically significant stimulation of IL-1b formation
oedema formation [12] = experiment: animal or person; conditions: Cavia porcellus, read-out: dose from which oedema inhibition is statistically significant
human PMN neutrophils [13] = experiment: [Ca^++ ]i increase induced by C5a in human PMN neutrophils; format: cell-based; conditions: for C5a [Ca^++ ]i (% ± SEM): C5a 10^-8 M, % of basal (100%), no treatment 198 ± 10; for percent of non responsive cells: C5a stimulation and treatment with the L-lysine salts
Text: (§1) Results are expressed as percent of the basal value of [Ca^++ ]i and are the mean from the values of all responsive cells. Standard error of the mean (SEM) and number of replications (n, in brackets) are also reported.

human PMN neutrophils [14] = experiment: [Ca^++ ]i increase induced by FMLP in human PMN neutrophils; format: cell-based; conditions: FLMP 10^-7 M; % of basal (100%); no treatment 208 ± 7
Text: as §1

[15] = system: interleukin IL-8 production; conditions: reduced from 53.8 pg/ml, p<0.1, cited from earlier work
MCP-1 and IL-8 release = conditions: comparative study; cited from earlier work

CC(C(=O)O)c1ccc(-c2ccccc2)c(F)c1 (racemic) [flurbiprofen, 3-fluoro-4-phenylhydratropic acid]
migration of cells into the pleural cavity [1]: inhibit the migration of PMN cells, but not that of monocytes | carrageenin-induced formation of pleural exudate [1]: inhibited

CN1C(C(=O)Nc2nccs2)=C(O)c2ccccc2S1(=O)=O [sudoxicam]
migration of cells into the pleural cavity [1]: inhibit the migration of PMN cells, but not that of monocytes | carrageenin-induced formation of pleural exudate [1]: inhibited

C[C@@H](C(=O)O)c1ccc(-c2ccccc2)c(F)c1 [(R)-flurbiprofen, 3-fluoro-4-phenylhydratropic acid]
inhibition of pain perception (pain perception): efficacy at least similar to that of the (S) enantiomers | conversion of (R) into (S) enantiomer [2]: < 5% | conversion of (R) into (S) enantiomer [3]: completely converted | conversion of (R) into (S) enantiomer [4]: < 5%

CC(C)C[C@H](NC(=O)OCC1c2ccccc2-c2ccccc21)C(=O)O [NPC-15669, N-Fmoc-L-leucine]
[Ca^++ ]i increase in PMN neutrophils (PMN neutrophils): inhibited FLMP-stimulated, but not other agonist-stimulated [Ca^++ ]i increase

Cc1c(Cl)cccc1Nc1ccccc1C(=O)O [tolfenamic acid]
inhibition of neutrophil activation / blockade of Ca^++ ion entry (neutrophil): inhibition of neutrophil activation

COc1ccc2c(c1)c(CC(=O)O)c(C)n2C(=O)c1ccc(Cl)cc1 [indomethacin]
IL-8 production in human synovial cells (human synovial cells): not inhibited | migration of cells into the pleural cavity [1]: inhibit the migration of PMN cells, but not that of monocytes | carrageenin-induced formation of pleural exudate [1]: inhibited

O=C(O)c1ccccc1Nc1cccc(C(F)(F)F)c1 [flufenamic acid]
inhibition of neutrophil activation / blockade of Ca^++ ion entry (neutrophil): inhibition of neutrophil activation

COC(=O)C1=C(C)NC(C)=C(C(=O)OC)C1c1ccccc1[N+](=O)[O-] [nifedipine]
inhibition of neutrophil activation / blockade of Ca^++ ion entry (neutrophil): completely inactive

C[C@H](C(=O)O)c1cccc(C(=O)c2ccccc2)c1 [(S)-ketoprofen]
Protection, UV radiation-induced epidermal erythema [5]: 73.4±4.0% | IC50 (TXB2 synthesis): 160 ± 40 µM

C[C@@H](C(=O)O)c1cccc(C(=O)c2ccccc2)c1 [(R)-ketoprofen L-lysine salt, (R)-2-(3-benzoylphenyl)propionic acid]
ulcer score [6]: 2 | ulcer-inducing properties ([6]; compared with (S) enantiomer): less ulcer-inducing properties | inhibitory effect on human PMN neutrophil degranulation (elastase release) (human PMN neutrophils [7]): specific inhibitory effects | inhibition of oedema formation (oedema formation [8]): significantly inhibited oedema formation | La^+++ + IL-8 [Ca^++ ]i (% ± SEM) [9]: 176 ± 7% | inhibitory effect on IL-8-stimulated chemotactic migration (Neutrophils): specific inhibitory effects | [Ca^++ ]i (% ± SEM) (human PMN leukocytes; drug 10^-6 M): 182 ± 15% | [Ca^++ ]i (% ± SEM) (human PMN leukocytes; drug 10^-7 M): 193 ± 10% | [Ca^++ ]i (% ± SEM) (human PMN leukocytes; drug 10^-8 M): 188 ± 8% | [Ca^++ ]i (% ± SEM) (human PMN leukocytes; drug 10^-9 M): 364 ± 29% | effect on TNF-a release [10]: completely ineffective | inhibitory effect on hyperalgesia (hyperalgesia): marked, dose-dependent inhibitory effect on hyperalgesia | doses with marked, dose-dependent inhibition of hyperalgesia (hyperalgesia; maximal at the highest dose): 75 to 250 mmol/kg | effect on IL-1b release ([11]; LPS-stimulated, 10^-9 -10^-5 M): completely ineffective | minimal effective dose (oedema formation [12]): 250000 µmol/kg | C5a [Ca^++ ]i (% ± SEM) (human PMN neutrophils [13]): 153 ± 4% | percent of non responsive cells (human PMN neutrophils [13]): 50% | FMLP [Ca^++ ]i (% ± SEM) (human PMN neutrophils [14]): 193 ± 6%

CC(C(=O)O)c1cccc(C(=O)c2ccccc2)c1 (racemic) [racemic ketoprofen]
Protection, UV radiation-induced epidermal erythema [5]: 56.1±3.1% | IC50 (TXB2 synthesis): 420 ± 40 µM | interleukin IL-8 production ([15]; 100 mg/kg): 16.9 pg/mL | interleukin IL-8 production ([15]; 200 mg/kg): 22.4 pg/mL

CN(Cc1cnc2nc(N)nc(N)c2n1)c1ccc(C(=O)N[C@@H](CCC(=O)O)C(=O)O)cc1 [metotrexate]
inhibition of release of MCP-1 and IL-8 (MCP-1 and IL-8 release): in a sub-optimal manner

CN1C(C(=O)Nc2ccccn2)=C(O)c2ccccc2S1(=O)=O [piroxicam]
IL-8 production in human synovial cells (human synovial cells): not inhibited

CC(C(=O)O)c1cccc(Oc2ccccc2)c1 (stereo not drawn) [fenofren]
migration of cells into the pleural cavity [1]: inhibit the migration of PMN cells, but not that of monocytes | carrageenin-induced formation of pleural exudate [1]: inhibited

C[C@H](C(=O)O)c1cccc(C(=O)c2ccccc2)c1 [(S)-ketoprofen L-lysine salt]
ulcer score [6]: 4 | inhibitory effect on human PMN neutrophil degranulation (elastase release) (human PMN neutrophils [7]): specific inhibitory effects | dose of maximal effect on oedema formation (oedema formation [8]; dose range 25 to 750 mmoles/kg): 250 mmol/kg | La^+++ + IL-8 [Ca^++ ]i (% ± SEM) [9]: 166 ± 7% | inhibitory effect on IL-8-stimulated chemotactic migration (Neutrophils): specific inhibitory effects | [Ca^++ ]i (% ± SEM) (human PMN leukocytes; drug 10^-6 M): 163 ± 18% | [Ca^++ ]i (% ± SEM) (human PMN leukocytes; drug 10^-7 M): 199 ± 13% | [Ca^++ ]i (% ± SEM) (human PMN leukocytes; drug 10^-8 M): 183 ± 5% | [Ca^++ ]i (% ± SEM) (human PMN leukocytes; drug 10^-9 M): 289 ± 19% | inhibitory effect on hyperalgesia (hyperalgesia): only a slight inhibitory effect on hyperalgesia | minimal effective dose (hyperalgesia; Cavia porcellus, read-out: dose with statistically significant inhibition of hyperalgesia): 750000 µmol/kg | minimal effective concentration [11]: 10 µM | minimal effective dose (oedema formation [12]): 75000 µmol/kg | C5a [Ca^++ ]i (% ± SEM) (human PMN neutrophils [13]): 150 ± 4% | percent of non responsive cells (human PMN neutrophils [13]): 50% | FMLP [Ca^++ ]i (% ± SEM) (human PMN neutrophils [14]): 214 ± 13%

CC(C)Cc1ccc([C@@H](C)C(=O)O)cc1 [(R)-ibuprofen, p-isobutylhydratropic acid]
conversion of (R) into (S) enantiomer ([2]; in words): nearly completely converted | conversion of (R) into (S) enantiomer [3]: nearly completely converted

CC(C(=O)O)c1cccc(C(=O)c2ccccc2)c1 (racemic) [racemic ketoprofen L-lysine salt]
ulcer score [6]: 3 | inhibition of oedema formation (oedema formation [8]): constantly intermediate between those evaluated for the two enantiomers | inhibitory effect on hyperalgesia (hyperalgesia): constantly intermediate between those evaluated for the two enantiomers | minimal effective concentration [11]: 10 µM

CC(C(=O)O)c1ccc(C(=O)c2ccccc2)s1 (stereo not drawn) [thioprofenic acid]
IL-8 production in human synovial cells (human synovial cells): not inhibited

COc1ccc2cc([C@H](C)C(=O)O)ccc2c1 [naproxen]
IL-8 production in human synovial cells (human synovial cells): not inhibited

O=C([O-])CC(S)C(=O)[O-].[Na+].[Na+] (stereo not drawn) [sodium thiomalate]
inhibition of release of MCP-1 and IL-8 (MCP-1 and IL-8 release): in a sub-optimal manner

C[C@@H]1C[C@H]2[C@@H]3CCC4=CC(=O)C=C[C@]4(C)[C@@]3(F)[C@@H](O)C[C@]2(C)[C@@]1(O)C(=O)CO [dexamethasone]
inhibition of release of MCP-1 and IL-8 (MCP-1 and IL-8 release): in an optimal manner
